One assay deals with TYR. Description: TYR protein expression in human skin ex vivo (immunohistochemistry). Conditions: topical 30, 100 and 200 µM, six days; p = 0.06. The format is cell-based. Here is the method: Following declaration of Helsinki principles (DoH-Oct2013, World Medical Association, Ferney-Voltaire, France), human skin samples were obtained from elective plastic surgery after informed consent was obtained. For the two experiments shown in Figure 2, Figure 3 and Figure 4, we had one person with an individual topology angle (ITA°) of 18, and one person with an ITA° of 39 [69]. The skin samples were cut in pieces of 8 × 3 mm and cultured up to day 6. Skin samples were cultured in an air–liquid interface in a perforated ring of stainless steel in contact with culture medium (modified Williams’ E medium). The culture medium was renewed every three days (i.e., day 0–3). Compounds were added daily in DMSO at 4 µL volume. At day 6, the skin samples were fixed in formalin, embedded in paraplast, and cut at the microtome for histochemical staining and consequent image analysis. Six skin biopsies were used for each single treatment.
Twelve skin sections from the ex vivo melanogenesis experiment above were immunoassayed with the selected antibodies (TYR, Thermo Scientific #MS-800-P0 (Thermo Scientific, Waltham, MA, USA); TYRP-1, Covance #SIG-38150 (Covance Inc., Princeton, NJ, USA), MITF, Abcam #ab80651 (Abcam plc, Cambridge, UK). The number of positive cells within the epidermis was counted and the value was normalized upon the length of the basal lamina, thus obtaining a score. […]

The subject of another assay is Nrf2 (phospho S40). Description: Nrf2 serine 40 phosphorylation in skin explants after UVA-irradiation. Conditions: p < 0.05 vs UVA-irradiated vehicle control. The format is cell-based, human. The procedure:
On an abdominoplasty coming from a person with Fitzpatrick phototype II, skin explants of an average diameter of 11 mm were prepared after obtaining written informed consent. The explants were kept in culture medium at 37 °C in a humid, 5% CO2 atmosphere. The peptide was applied topically and spread using a small spatula on day 0 (D0), D1, D2, and D3. […] On day 3, explants were irradiated with UVA (13.5 J/cm^2 equal to 3 minimal erythemal doses (MED)) using a Vilbert Lourmat solar simulator RMX 3W. For the UV irradiation, the explants were transferred into 1 mL of HBSS (Hank’s buffered salt solution) medium. The non-irradiated batches were kept in 1 mL of HBSS medium. After the UV exposure, all the explants were put in fresh Bio-EC’s explant medium (BEM medium). The products were applied on the explants 3 h before and just after UVA irradiation. Twenty-four hours after UVA irradiation, the tissues were harvested and processed for histology. After fixation for 24 h in buffered formalin, the samples were dehydrated and impregnated in paraffin using a Leica TP 1010 dehydration automat. The samples were embedded using a Leica EG 1160 embedding station. Sections 5 µm thick were made using a Leica RM 2125 Minot-type microtome, and the sections were mounted on Superfrost® histological glass slides (Thermo Fisher Scientific, Waltham, MA, USA). […]

The target of a further assay is T1, OP1R (Homo sapiens, UniProt P41143).
T1 construct: host or cells: CHO-K1 (membrane preparations)
Description: OP1R (delta opioid) activation, GTPγS scintillation proximity assay. The assay is classed as biochemical. The following applies: eight concentrations, 0.01 to 100,000 nM. The procedure:
Melatonin (MT1R and MT2R) and opioid receptor (OP1R, OP2R, and OP3R, corresponding to human delta, kappa, and mu opioid receptors) activation assays were performed by means of GTPγS scintillation proximity assays. For agonist testing, membrane preparations from CHO-K1 cells expressing each receptor (EuroscreenFast, Gosselies, Belgium) were mixed with guanosine diphosphate (GDP) (v/v). In parallel, GTPγ[^35S] (PerkinElmer, NEG030X, 0.1 nM final assay concentration) was mixed with PVT-WGA beads (Perkin Elmer, RPNQ001, 0.5 mg/well final assay density) (v/v) just before starting the reaction. The following reagents were then successively added in the wells of an Optiplate (Perkin Elmer): A total of 50 µL of test or reference ligand diluted in assay buffer, 10 µL of assay buffer (20 mM HEPES pH 7.4; 100–200 mM NaCl, 10 µg/mL saponin, MgCl2 at optimized concentration for the specific receptor, 0%–0.1% BSA), 20 µL of the membranes: GDP mix, and 20 µL of the GTPγ[^35S]: Beads mix. The plates were covered with a top seal, mixed on an orbital shaker for 2 min, and then incubated for 1 h at room temperature. Then the plates were centrifuged for 10 min at 2000 rpm, incubated at room temperature for 1 h, and counted for 1 min/well with a PerkinElmer TopCount™ reader.

This is an account of results in paper PMC6940745 (International Journal of Molecular Sciences, 2019).

The structures appear in SMILES notation. Where a SMILES comes first, the peptide text is derived from it. [ ]: non-standard residue; d: D form. The star is where a group is joined. Bz = O=C(c1ccccc1)*; NPr2 = CCCN(CCC)*

T1 sequence (P41143 whole entry): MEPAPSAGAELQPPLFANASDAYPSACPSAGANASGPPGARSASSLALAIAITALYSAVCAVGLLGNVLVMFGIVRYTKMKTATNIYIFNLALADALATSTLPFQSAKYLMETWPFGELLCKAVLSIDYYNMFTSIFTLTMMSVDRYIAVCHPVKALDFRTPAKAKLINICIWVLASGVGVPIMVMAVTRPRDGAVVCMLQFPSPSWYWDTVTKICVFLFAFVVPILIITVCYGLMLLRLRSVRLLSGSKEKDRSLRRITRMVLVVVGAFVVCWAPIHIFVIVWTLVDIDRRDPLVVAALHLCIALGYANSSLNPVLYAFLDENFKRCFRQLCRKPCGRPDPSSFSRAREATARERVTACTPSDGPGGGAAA

With `CCCN(CCC)C(=O)[C@@H](Cc1c[nH]c2ccccc12)NC(=O)[C@H](CCCNC(=N)N)NC(=O)[C@@H](Cc1ccccc1)NC(=O)[C@H](Cc1c[nH]cn1)NC(=O)CNC(=O)c1ccccc1` [Peptide 4] (Bz-GH[dF]R[dW]-NPr2), the “Maximal induction of TYR protein expression vs vehicle” value in the assay with TYR was found to be 44%. Further, the “Induction of Nrf2 phosphorylation on serine 40” value in the assay on Nrf2 (phospho S40) was “up to 161%”. For the same compound, the EC50 at OP1R is over 100 µM.

The EC50 is the concentration that produces a half-maximal response. A lower EC50 goes with a more potent agent.
